Results: US20250351832A1, “PHYTOCHEMICALS AS BIOPESTICIDES AND BIOSTIMULANTS” (KAY BEE BIO ORGANICS PVT. LTD., priority 2024, published 2025)
Where two headings read alike, the source gives them in different places.

Legend:
[1] = system: Spodoptera litura
[2] = system: Aphid
[3] = system: Spodoptera litura; test: whole plant or invertebrate; conditions: 72 h
[4] = system: Mealy Bug
[5] = cited from earlier work
[6] = system: Thrips; test: whole plant or invertebrate; conditions: in Gossypium hirsutum, 48 h
[7] = system: Alternaria alternata; test: Alternaria leaf spot/blight on inoculated tomato plants (Ex. 28); type: in vivo; conditions: tomato plants, Alternaria alternata; after 7 days; dose 1 ml/gm/lit
[8] = system: chili seedlings; test: Response of chili plants, greenhouse growth (Ex. 31); type: in vivo
[9] = system: Alternaria alternata; test: In vitro poisoned food technique against fungus (Ex. 20); type: cell-based; conditions: poisoned food technique, PDA medium, dose 1 ml/gm/lit., after seven days; for inhibition of growth at 1 mL or g/L: vs untreated control, read-out: % Inhibition of growth
[10] = system: Mealy Bug; remark: listed apart in the source
[11] = system: Thrips
[12] = system: tomato seedlings; test: Response of tomato plants, greenhouse growth (Ex. 30); type: in vivo; conditions: tomato seedlings, dose 1 ml/gm/lit; for Plant Height 5th Day / Stem Girth 5th Day / CCI 5th Day: 5th day after application; for Plant Height 10th Day / Stem Girth 10th Day / CCI 10th Day: 10th day after application; for Plant Height % Increase over pre on 10th Day / Stem Girth % Increase over pre on 10th Day / CCI % Increase over pre on 10th Day / Root Length (cm) 10th Day / Root Length % Increase over control: 10th day; for Root Length % Increase over control: vs water control
[13] = system: Helicoverpa armigera
[14] = system: Spodoptera litura; conditions: in vivo
[15] = system: Aphid; test: whole plant or invertebrate; conditions: 48 h
[16] = system: Aphid; conditions: Aphids on cotton plants, green house; dose 1 ml/gm/lit.; 10 insects/plant, 10 plants/treatment; 48 hrs
[17] = system: Mite; conditions: Dose 1 ml/gm/lit.
[18] = system: Mite; conditions: mite on okra plants, green house, dose 1 ml/gm/lit. spray
[19] = system: Helicoverpa armigera; conditions: Helicoverpa armigera 3rd instar on chickpea plants, dose 1 ml/gm/lit. spray
[20] = system: Thrips; conditions: Thrips on cotton leaves; dose 1 ml/gm/lit.; 10 insects/treatment; 48 hrs after application
[21] = read-out: % Corrected Mortality at 72 Hrs.
[22] = read-out: % Mortality at 72 Hrs.
[23] = Table 13, descriptive, no test described
[24] = read-out: % Corrected Mortality at 48 Hrs.
[25] = read-out: % Mortality at 48 Hrs.
[26] = chili seedlings, dose 1 ml/gm/lit, 10th day
[27] = chili seedlings, dose 1 ml/gm/lit, 5th day after application
[28] = chili seedlings, dose 1 ml/gm/lit, 10th day after application
[29] = mealy bug on cotton plants, green house, dose 1 ml/gm/lit. spray, 48 hrs after application
[30] = thrips on cotton plants, greenhouse, dose 1 ml/gm/lit. spray, 48 hrs after application

With CC(C)c1ccc(C=O)cc1 [Cuminaldehyde] the “Total No. of dead insect at 72 Hrs.” value ([1]; in vivo) was 5.25, the “% Corrected Mortality at 48 Hrs.” value ([2]; in vivo) was 45.71% and the “% Mortality at 48 Hrs.” value ([2]; in vivo) was 52.50%. The mortality at 1 mL or g/L [3, 21] was 50%, the mortality at 1 mL or g/L [3, 22] was 52.5% and the “% Corrected Mortality at 48 Hrs.” value ([4]; in vivo) was 50.00%. For the same molecule, the “Antifungal Activity - Mode of action” value [5, 23] was “Mycelial growth inhibition”, the “Antioxidant Activity - Mode of action” value [5, 23] was “Increase in reactive oxygen” and the “Bactericidal Activity - Mode of action” value [5, 23] was “Great antimicrobial effects”. For the same molecule, the “Insecticidal Activities - Mode of action” value [5, 23] was “Acute Toxicity Effects”, the “Nematicidal Activity - Mode of action” value [5, 23] was “Efficient hatching inhibitor” and the “Phytotonic Effect” value ([5]; Table 13, effect on plants, descriptive) was “Boost plant”. The mortality at 1 mL or g/L [6, 24] was 34.3%, the mortality at 1 mL or g/L [6, 25] was 42.5% and the “% Disease reduction over Control” value [7] was 52.89%. For the same molecule, the “CCI Pre” value [8] was 10.29, the “Plant Height (cm) Pre” value [8] was 4.27 cm and the “CCI 5th Day” value ([8]; 120 h) was 12.10. For the same molecule, the “Plant Height (cm) 5th Day” value ([8]; 120 h) was 5.77 cm, the “CCI 10th Day” value ([8]; 240 h) was 13.9 and the “Plant Height (cm) 10th Day” value ([8]; 240 h) was 6.40 cm. The “Root Lenght % Increase over control” value ([8]; 240 h) was 13.94%, the “CCI % Increase over pre on 10th Day” value [8, 26] was 35.08% and the “Plant Height % Increase over pre on 10th Day” value (“Plant Height % Increase” for short) [8, 26] was 50.00%. The “Root Lenght (cm) 10th Day” value [8, 26] was 3.12 cm, the “Stem Girth % Increase over pre on 10th Day” value (“Stem Girth % Increase” below) [8, 26] was 40.41% and the “Mean colony Diameter (mm)” value [9] was 51.50 mm. The inhibition of growth at 1 mL or g/L [9] was 41.5%, the “% Corrected Mortality at 48 Hrs.” value ([10]; in vivo) was 50.00% and the “% Corrected Mortality at 48 Hrs.” value ([11]; in vivo) was 33.33%. For the same molecule, the “% Mortality at 48 Hrs.” value ([11]; in vivo) was 40.00%, the “Plant Height 5th Day” value [12] was 6.62 cm and the “Stem Girth 5th Day” value [12] was 1.77 mm. The “Plant Height 10th Day” value [12] was 7.33 cm, the “Stem Girth 10th Day” value [12] was 2.08 mm and the “Plant Height % Increase” value [12] was 31.36%. For the same molecule, the “Stem Girth % Increase” value [12] was 64.12%, the “CCI 5th Day” value [12] was 13.64 and the “CCI % Increase over pre on 10th Day” value [12] was 16.83%. For the same molecule, the “Root Length (cm) 10th Day” value [12] was 3.81 cm, the “CCI 10th Day” value [12] was 14.65 and the “Root Length % Increase over control” value [12] was 14.59%. For the same molecule, the “Total No. of dead insect at 72 Hrs.” value ([13]; in vivo) was 3.75, the “% Corrected Mortality at 72 Hrs.” value [14] was 52.63% and the “% Mortality at 72 Hrs.” value [14] was 55.00%. For the same molecule, the mortality at 1 mL or g/L [15, 24] was 47.1% and the mortality at 1 mL or g/L [15, 25] was 55%.

For CC1CCC(C(C)C)C(O)C1 (centres unmarked) [Menthol], the “Total No. of dead insect at 72 Hrs.” value ([1]; Spodoptera litura on castor leaves, dose 1 ml/gm/lit., 10 insects/treatment, 72 hrs after application) was 2.75, the “Total No. of dead insect at 48 Hrs.” value ([2]; Dose 1 ml/gm/lit., 10 insects/treatment, 4 replications, cotton leaves) was 7.00 and the “% Corrected Mortality at 48 Hrs.” value ([2]; Dose 1 ml/gm/lit., 48 hrs) was 65.71%. For the same molecule, the “% Mortality at 48 Hrs.” value ([2]; Dose 1 ml/gm/lit., 48 hrs) was 70.00%, the “Total No. of dead insect at 48 Hrs.” value [16] was 75.00 and the mortality at 1 mL or g/L [3, 21] was 23.7%. For the same molecule, the mortality at 1 mL or g/L [3, 22] was 27.5%, the “Total No. of dead insect at 48 Hrs.” value ([4]; Mealy Bug on cotton leaves, dose 1 ml/gm/lit., 10 insects/treatment, 4 replications, 48 Hrs.) was 6.50 and the “% Mortality at 48 Hrs.” value ([4]; Mealy Bug on cotton leaves, dose 1 ml/gm/lit., 48 Hrs.) was 65.00%. The “% Corrected Mortality at 48 Hrs.” value ([4]; Mealy Bug on cotton leaves, dose 1 ml/gm/lit., 48 Hrs., corrected for water control) was 63.16%, the “Acaricidal Activity - Mode of action” value [5, 23] was “Causes mortality & reduction” and the “Antifungal Activity - Mode of action” value [5, 23] was “Inhibits fungal growth”. The “Antioxidant Activity - Mode of action” value [5, 23] was “Possesses antioxidant”, the “Bactericidal Activity - Mode of action” value [5, 23] was “Menthol showed” and the “Insecticidal Activities - Mode of action” value [5, 23] was “Lower larval weight, reduced”. The “Total No. of dead insect at 48 Hrs.” value ([17]; 10 insects/treatment, 4 replications, okra leaves) was 4.50, the “% Corrected Mortality at 48 Hrs.” value ([17]; 48 hrs) was 40.54% and the “% Mortality at 48 Hrs.” value ([17]; 48 hrs) was 45.00%. For the same molecule, the mortality at 1 mL or g/L [6, 24] was 71.4%, the mortality at 1 mL or g/L [6, 25] was 75% and the “% Disease reduction over Control” value [7] was 56.20%. The “CCI 5th Day” value [8, 27] was 10.24, the “Plant Height (cm) 5th Day” value [8, 27] was 6.48 cm and the “CCI % Increase over pre on 10th Day” value [8, 26] was 44.78%. The “Plant Height % Increase” value [8, 26] was 45.21%, the “Root Lenght (cm) 10th Day” value [8, 26] was 3.02 cm and the “Stem Girth % Increase” value [8, 26] was 42.37%. The “CCI 10th Day” value [8, 28] was 13.87, the “Plant Height (cm) 10th Day” value [8, 28] was 6.52 cm and the “Root Lenght % Increase over control” value ([8]; chili seedlings, dose 1 ml/gm/lit, 10th day, vs water control) was 10.37%. The “Mean colony Diameter (mm)” value [9] was 52.00 mm, the inhibition of growth at 1 mL or g/L [9] was 40.9% and the “% Mortality at 48 Hrs.” value [10, 29] was 67.50%. The “Total No. of dead insect at 48 Hrs.” value [10, 29] was 67.50, the “% Corrected Mortality at 48 Hrs.” value ([10]; mealy bug on cotton plants, green house, dose 1 ml/gm/lit. spray, 48 hrs, corrected for water control) was 63.89% and the “% Mortality at 48 Hrs.” value ([18]; 48 hrs after application) was 42.50%. For the same molecule, the “Total No. of dead insect at 48 Hrs.” value ([18]; 48 hrs after application) was 42.50, the “% Corrected Mortality at 48 Hrs.” value ([18]; 48 hrs, corrected for water control) was 39.47% and the “% Mortality at 72 Hrs.” value ([19]; 72 hrs after application) was 55.00%. The “% Corrected Mortality at 72 Hrs.” value ([19]; 72 hrs, corrected for water control) was 55.00%, the “% Mortality at 48 Hrs.” value [11, 30] was 72.50% and the “Total No. of dead insect at 48 Hrs.” value [11, 30] was 72.50. For the same molecule, the “% Corrected Mortality at 48 Hrs.” value ([11]; thrips on cotton plants, greenhouse, dose 1 ml/gm/lit. spray, 48 hrs, corrected for water control) was 69.44%, the “Total No. of dead insect at 48 Hrs.” value [20] was 7.50 and the “Plant Height 5th Day” value [12] was 6.78 cm. The “Stem Girth 5th Day” value [12] was 1.48 mm, the “Plant Height 10th Day” value [12] was 7.18 cm and the “Stem Girth 10th Day” value [12] was 2.19 mm. The “Plant Height % Increase” value [12] was 27.30%, the “Stem Girth % Increase” value [12] was 54.01% and the “CCI 5th Day” value [12] was 13.48. The “CCI % Increase over pre on 10th Day” value [12] was 27.44%, the “Root Length (cm) 10th Day” value [12] was 3.93 cm and the “CCI 10th Day” value [12] was 14.35. For the same molecule, the “Root Length % Increase over control” value [12] was 18.18%, the “Total No. of dead insect at 72 Hrs.” value ([13]; Helicoverpa armigera on okra fruits, dose 1 ml/gm/lit., 10 insects/treatment, 4 replications, 72 Hrs.) was 6.00 and the “% Mortality at 72 Hrs.” value ([13]; Helicoverpa armigera on okra fruits, dose 1 ml/gm/lit., 72 Hrs.) was 60.00%. For the same molecule, the “% Corrected Mortality at 72 Hrs.” value ([13]; Helicoverpa armigera on okra fruits, dose 1 ml/gm/lit., 72 Hrs., corrected for water control) was 60.00%, the mortality at 1 mL or g/L [15, 24] was 70.6% and the mortality at 1 mL or g/L [15, 25] was 75%.
